# Source: patent US20230060873A1, “COMPOUNDS AND METHODS FOR FORMING ION CHANNELS IN BIOLOGICAL MEMBRANES” (Washington University, priority 2021, published 2023)
# Columns and labels:
# Bacillus subtilis = test: Toxicity (MIC) of MAcBCE and MAkBCE compounds on B. subtilis; type: cell-based; details: B. subtilis 168 WT with pRB374, 12 h, up to 400 μM
# Method: XL1 blue strain Escherichia coli cells transformed with pET28a plasmid containing a kanamycin resistance gene, were grown at 37° C. in 2 mL of LB medium (Miller's LB broth, Research Products International) supplemented with 50 μg/mL of kanamycin, until the optical density (OD600) reached 0.6. The starting density of bacteria in the remainder of the experiments was a 1/100 dilution of this bacterial density, which was split into 4 mL cultures. A series of 400, 100, 10 and 5 mM stock solutions of each monoacylated benzo(crown-ether) (MAcBCE) and monoalkylated benzo(crown-ether) (MAkBCE) compounds in trifluoroethanol (TFE) were diluted by addition to the 4 mL cultures to reach final concentrations of 400, 200, 100, 50, 20, 15, 10, 5, 4, 3, 2 and 1 μM. The final TFE concentration was never higher than 0.1% v/v. Negative controls in the presence of TFE 0.1% v/v or in the absence of any treatment for each batch gave similar bacterial growth. The cultures were incubated at 37° C. with agitation for 12 h. Bacillus subtilis (168 WT) toxicity tests were carried out using an identical protocol, except they were transformed with the shuttle plasmid pRB374 in the presence of 5 μg/mL of kanamycin. […] Each compound was assayed a minimum of three times at each tested concentration.
# The cytotoxicity of MABCE compounds was determined by measuring the MIC in liquid cultures of either the gram-negative bacteria Escherichia coli or the gram-positive bacteria Bacillus subtilis. […] As some curves overlap, portions of them are hidden. Values of MIC of 400 μM indicate that the value was either 400 μM, or it was higher and then was not determined. Each compound was assayed a minimum of three times at each different concentration. MICs for 5-A-4, 5-A-11, 6-A-11 and 6-O-11 could not be determined because the compounds were not soluble in TFE. While E. coli was not susceptible to any of the tested compounds at concentrations as high as 400 μM (data not shown), B. subtilis was susceptible to MABCE compounds bearing 15-crown-5 and 18-crown-6 scaffolds, but not to compounds containing a 12-crown-4 scaffold, as shown in FIG. 1.
# [1] = Reversal potential and permeability ratio under bi-ionic conditions (voltage ramps); type: biochemical; details: 10 μM; for permeability ratio pK/pNa: Goldman-Hodgkin-Katz equation from reversal potential; for estimated reversal potential: internal 180 mM NaCl, 20 mM KCl, external 20 mM NaCl, 180 mM KCl, n=6
# Method: This can be determined by measuring the reversal potential under bi-ionic conditions and by applying rapid voltage ramps to measure reversal from open channels. For the determination of permeability ratios, a voltage protocol (detailed below) was applied 100 times to the membrane, while a gradient of ions was set through the membrane (internal solution: 180 mM NaCl, 20 mM KCl, 30 mM HEPES, pH adjusted to 7.4 with NaOH; external solution: 20 mM NaCl, 180 mM KCl, 30 mM HEPES, pH adjusted to 7.4 with NaOH). The protocol started from the holding potential (0 mV), followed by a jump to 100 mV during 100 ms, then a ramp of 1000 ms until −100 mV, maintenance of the voltage at −100 mV for 100 ms before returning to the initial 0 mV holding potential. Calculation of the variance at every isochrone allowed determination of the reversal potential (Vrev) as the voltage at which the variance is minimized. The permeability ratio for
# was calculated from the Goldman-Hodgkin-Katz (GHK) equation by assuming that reversal potential is the equilibrium membrane voltage reached by a selective membrane in the presence of that gradient of ions. This leads to the equation 1: […]
# where F is the Faraday constant, R is the gas constant, T is the absolute temperature, [K^+]i, and [K^+]e are the internal and external K^+ concentrations, respectively, and [Na^+]i, and [Na^+]e are the internal and external Na^+ concentrations, respectively.
# Multiple voltage ramps (N=100) from +100 mV to −100 mV were applied in the presence of 10 μM 6-A-10 (FIG. 18) and 10 μM 6-O-10 (FIG. 20). The reversal potential for each case was determined as that voltage which produces the minimum of variance (FIGS. 19 and 21). In FIGS. 19 and 21, the curves are the variance calculated from experiments in FIGS. 18 and 20, respectively.
# In these experiments, the internal concentration of Na^+ in the pipette was 9-fold higher than the external concentration, whereas the K^+ gradient was reversed (internal solution: 180 mM NaCl, 20 mM KCl, 30 mM HEPES, pH 7.4; external solution: 20 mM NaCl, 180 mM KCl, 30 mM HEPES, pH 7.4). If the channels are K^+ selective, the reversal potential will be close to the K^+ Nernst potential, which is 58 mV. In contrast, if the channels are highly Na^+ selective, then the reversal potential will be close to the Na^+ Nernst potential (−58 mV).
Structure (SMILES),"toxicity / susceptibility of B. subtilis (MIC, FIG. 1) (Bacillus subtilis)",permeability ratio pK/pNa [1],estimated reversal potential [1] [mV]
"CCCCCCCCCCc1ccc2c(c1)OCCOCCOCCOCCOCCO2 [Compound 6-A-10, 18-decyl-2,3,5,6,8,9,11,12,14,15-decahydrobenzo[b][1,4,7,10,13,16]hexaoxacyclooctadecine]",most toxic,1.4,8.0±0.8
"CCCCCCCCCC(=O)c1ccc2c(c1)OCCOCCOCCOCCOCCO2 [Compound 6-O-10, 1-(2,3,5,6,8,9,11,12,14,15-decahydrobenzo[b][1,4,7,10,13,16]hexaoxacyclooctadecin-18-yl)decan-1-one]",most toxic,1.3,6.5±0.6
